Source: patent publication US20200330456A1, “NOVEL APPLICATION OF GZD824 AND PHARMACEUTICALLY ACCEPTABLE SALTS THEREOF IN TREATING DISEASES” (HEALTHQUEST PHARMA INC., priority 2016, published 2020)

Tests used:
NALM6 cells = experiment: Apoptosis kit (ANNEXIN V, PI) flow cytometry, NALM6; type: cell-based; settings: 24 hours, GZD824 vs KX2-391 vs HO-3867 vs DMSO
Procedure: 1.2 After treating NALM6 and SUPB15 cells respectively with GZD824 (3 μM, 1 μM) and DMSO of different concentrations for 24 hours, apoptosis was detected using an apoptosis kit (ANNEXIN V, PI). Please refer to FIG. 2 for the results. After treating the two types of cells NALM6 and SUPB15 respectively with GZD824 of different concentrations (3 μM/L, 1 μM/L) for 24 hours, the cells were stained with the apoptosis kit (ANNEXIN V, PI), and apoptosis was detected with flow cytometry.
5.3 After treating NALM6 cells with GZD824, SRC suppressor (KX2-391), STAT3 suppressor (HO-3867) or DMSO for 24 hours, apoptosis was detected by using the apoptosis kit (ANNEXIN V, PI). The ratio of ANNEXIN V positive cells was analyzed by statistical methods. […] For the experimental results, please refer to FIG. 15.

[1] = test system: human primary leukemia cells from P #1 PDX mouse spleen; experiment: Apoptosis of human primary leukemia cells from P #1 PDX mouse spleen, with and without IGF-1; type: cell-based; settings: P #1 PDX spleen cells; GZD824 1 μM/L and IGF-1 10 ng/mL, 24 hours
Procedure: 6.2 Human primary leukemia cells were extracted from P #1 PDX mouse spleen and co-cultured with DMSO, GZD824 (1 μM/L), IGF-1 (10 ng/mL), or GZD824 (1 μM/L) and IGF-1 (10 ng/mL) for 24 hours. The ratios of ANNEXIN V positive cells were analyzed by statistical methods. […] Please refer to FIG. 17 for the experimental results.

| Molecule | ratio of apoptosis (ANNEXIN V positive cells), comparison of inhibitors (NALM6 cells) | effect of added IGF-1 on GZD824-induced apoptosis [1] |
| --- | --- | --- |
| CC1(C)C=C(CN2C/C(=C\c3ccc(F)cc3)C(=O)/C(=C/c3ccc(F)cc3)C2)C(C)(C)N1O [HO-3867, reference compound] | almost the same | – |
| O=C(Cc1ccc(-c2ccc(OCCN3CCOCC3)cc2)cn1)NCc1ccccc1 [KX2-391, reference compound] | almost the same | – |
| IGF-1: cytokine IGF-1, added at 10 ng/mL | – | partly reverse the effect of GZD824 on apoptosis |
